The record followed here is patent US5252566A, “Antithrombotic agents” (priority 1992, dated 1993).

Counter-ions that a name gives are not always drawn. Like-named read-outs stand apart in the source and are kept apart here. Where a SMILES comes first, the peptide text is derived from it. [ ]: non-standard residue; d: D form. dTic = O=C(O)[C@H]1Cc2ccccc2CN1; Aze = O=C(O)[C@@H]1CCN1

For the test, the target named is T1, thrombin (Bos taurus, UniProt P00735).
T1 construct: purchased
Description: biochemical. Here is the method:
The assay was carried out in 50 μl buffer (0.03M Tris, 0.15M NaCl, pH 7.4) with 25 μl of thrombin solution (0.21 mg/ml of thrombostat powder in 0.06M Tris, 0.3M NaCl, pH 7.4) and 150 μl of an aqueous solution of the chromogenic substrate at a concentration of 0.25 mg/ml. Solutions of test compound (25 μl) at various concentrations were added. Rates of hydrolysis of the substrate were measured by monitoring the reactions at 405 nm for the release of p-nitroaniline. Standard curves were constructed by plotting free thrombin concentration against hydrolysis rate. […] The amount of free inhibitor in each assay was calculated by subtracting the number of moles of bound thrombin from the number of moles of added inhibitor (test compound).
The Kass value is the hypothetical equilibrium constant for the reaction between thrombin and the test compound (I). [drawing 23]
Kass was calculated for a range of concentrations of test compounds and the mean value is reported in units of liter per mole.

Where [1] appears, read: Table 1, mean over a range of concentrations of test compound, pH 7.4, read-out: Kass × 10^6 (Thrombin Inhibition Levels) (converted).

Take `C[C@](NC(=O)C(F)(F)F)(C(=O)N1CC[C@H]1C(=O)N[C@H](C=O)CCCN=C(N)N)c1ccccc1` [TFA--D--Phg(α-Me)--Azt--Arg--H, N-[N-trifluoracetyl-D-(α-methyl)phenylglycyl)-L-azetidinyl-L-argininealdehyde hydrochloride]: the Kd under setting [1] is 7.87 nM. Turning to `CC(=O)N[C@@](C)(C(=O)N1CC[C@H]1C(=O)N[C@H](C=O)CCCNC(=N)N)c1ccccc1` [Ac--D--Phg(α-CH3)--Azt--Arg--H, N--Acetyl--D--Phg(α-CH3)--Azt--Arg--H], the Kd under setting [1] was 14.3 nM. With `CC(=O)NC(C)(C(=O)N1CC[C@H]1C(=O)N[C@H](C=O)CCCNC(=N)N)c1ccccc1` (mixture of isomers) [Ac--Phg(α-CH3)--Azt--Arg--H, N--Acetyl--DL--Phg(α-CH3)--Azt--Arg--H], under setting [1], the Kd is 66.7 nM. Regarding `N=C(N)NCCC[C@@H](C=O)NC(=O)[C@@H]1CCN1C(=O)[C@H]1Cc2ccccc2CN1` [D-3-Tiq--Azt--Arg--H, D-1,2,3,4-Tetrahydroisoquinolin-3-oyl-L-azetidin-2-oyl-L-arginine aldehyde sulfate] (H-[dTic]-[Aze]-Arg-aldehyde), the Kd under setting [1] was 28.6 nM. Compound `CC(C)(C)OC(=O)NC(C)(C(=O)N1CC[C@H]1C(=O)N[C@H](C=O)CCCNC(=N)N)c1ccccc1` (mixture of isomers) [Boc--DL--Phg(α-CH3)--Azt--Arg--H, N--Boc--DL--Phg(α-CH3)--Azt--Arg--H] had a Kd of 90.9 nM. As to `N=C(N)NCCC[C@@H](C=O)NC(=O)[C@@H]1CCN1C(=O)C1NCCc2ccccc21` (mixture of isomers) [DL-1-Tiq--Azt--Arg--H, DL-1,2,3,4-tetrahydroisoquinolin-1-oyl-L-azetidinyl-L-arginine aldehyde sulfate], the Kd under setting [1] was 37 nM.

The compound `CC(C)(C)OC(=O)N[C@@](C)(C(=O)N1CC[C@H]1C(=O)N[C@H](C=O)CCCN=C(N)N)c1ccccc1` [Boc--D--Phg(α-CH3)--Azt--Arg--H, N--Boc--D--Phg(α-CH3)--Azt--Arg--H] had a Kd of 16.4 nM.
